Patent publication US20060121565A1, “Methods for increasing the production of a recombinant polypeptide from a host cell” (CYMIP A/S, priority 2002, published 2006)
One block for each molecule: values may come before it.

Assays:
[1] = target: T1, protease performing the cleavage of synthetic human CCK-33 to CCK-22 (metalloprotease, identified as Cym1p) (Saccharomyces cerevisiae, UniProt P32898); experiment: In vitro protease assay: cleavage of synthetic CCK-33 to CCK-22 by crude yeast cell extract (LJY123); assay type: biochemical; settings: extract from LJY123; 1 mM EDTA, 1 mM 1,10-orthophenanthroline; 30° C., 1 h
T1 construct: endogenous in cells; host or cells: S. cerevisiae strain LJY123 (APE1, APE2, APE3 deleted; derived from Y14953), clarified crude cell extract
T1 sequence (P32898 17-989): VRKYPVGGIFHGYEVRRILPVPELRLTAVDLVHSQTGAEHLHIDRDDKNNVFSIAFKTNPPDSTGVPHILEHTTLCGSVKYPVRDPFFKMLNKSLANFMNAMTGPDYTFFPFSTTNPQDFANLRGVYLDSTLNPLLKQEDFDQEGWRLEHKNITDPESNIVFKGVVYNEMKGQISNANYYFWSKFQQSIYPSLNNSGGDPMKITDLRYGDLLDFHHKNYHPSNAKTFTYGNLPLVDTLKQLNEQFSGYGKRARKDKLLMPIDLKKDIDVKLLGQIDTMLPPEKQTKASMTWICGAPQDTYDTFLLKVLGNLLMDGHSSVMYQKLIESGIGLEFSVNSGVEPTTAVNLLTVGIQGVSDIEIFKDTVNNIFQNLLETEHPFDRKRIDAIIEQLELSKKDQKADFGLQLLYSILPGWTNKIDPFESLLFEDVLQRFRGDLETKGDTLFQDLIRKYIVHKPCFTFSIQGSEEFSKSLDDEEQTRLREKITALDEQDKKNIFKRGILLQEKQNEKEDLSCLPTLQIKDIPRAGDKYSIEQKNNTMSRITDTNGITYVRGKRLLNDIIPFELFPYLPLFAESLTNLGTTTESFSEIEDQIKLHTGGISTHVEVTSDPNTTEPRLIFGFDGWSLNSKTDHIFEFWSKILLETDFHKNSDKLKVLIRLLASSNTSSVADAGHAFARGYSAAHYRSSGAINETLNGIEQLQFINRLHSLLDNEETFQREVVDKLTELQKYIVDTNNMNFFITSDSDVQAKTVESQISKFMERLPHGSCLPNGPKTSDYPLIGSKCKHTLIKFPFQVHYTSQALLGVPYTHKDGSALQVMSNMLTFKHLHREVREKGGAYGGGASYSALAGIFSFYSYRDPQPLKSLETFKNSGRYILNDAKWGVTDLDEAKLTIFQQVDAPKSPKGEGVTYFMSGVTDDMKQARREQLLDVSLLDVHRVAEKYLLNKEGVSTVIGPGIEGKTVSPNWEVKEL
Experimental: FIG. 4. In vitro protease assay including inhibitors and activators. The fraction of CCK-22 was calculated from the immuno-reactivity using Ab 89009 divided by the total amount of mature and N-terminal extended CCK-22 measured with Ab 89009 after trypsin treatment. A, Effect of different inhibitors. B, Protease reactivation by addition of 1.2 mM divalent metal ions to extracts where the activity had been inhibited with 1 mM EDTA. The data represent mean±SD of three independent experiments.
FIG. 5. Protease reactivation by Zn^2+ and Mn^2+. […] The activity was measured as the fraction of matured CCK-22 after 30, 60 and 120 min incubation. The fraction of CCK-22 was calculated from the immuno-reactivity using Ab 89009 divided by the total amount of mature and N-terminal extended CCK-22 measured with Ab 89009 after trypsin treatment. […]
Two different antisera were used to determine the amount of processed cholecystokinin. […] The fraction of CCK processed to CCK-22 is calculated by division of the immuno-reactivity measured with Ab 89009 with the amount measured with the same antibody after the sample was treated with trypsin to measure the total amount of N-terminal extended CCK-22. […]
The nature of the protease performing the cleavage of synthetic human CCK-33 to CCK-22 was analysed by inclusion of a number of different inhibitors with the extract from LJY123. […]

Ac-CCK-33-Gly, P06307 = target: T2, Ac-CCK-33-Gly, P06307
T2 chain: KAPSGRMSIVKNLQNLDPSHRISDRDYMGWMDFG

inhibition of proteolysis of CCK-33 to CCK-22 [1]: inhibited
Molecule: O=C(O)CN(CCN(CC(=O)O)CC(=O)O)CC(=O)O [EDTA]

inhibition of proteolysis of CCK-33 to CCK-22 [1]: inhibited
Molecule: c1cnc2c(c1)ccc1cccnc12 [1,10 ortho-phenanthroline]

B1: Saccharomyces cerevisiae Cym1p (protein)
chain: T1 sequence (P32898 17-989)
rate of CCK-22 production in the in vitro protease assay (Ac-CCK-33-Gly, P06307): Expression of CYM1 on a multicopy plasmid enhanced the rate of CCK-22 production several fold
